Experimental data published in PubChem BioAssay AID1963979 (Molecular Pharmacology Branch, DTP, NCI, 2024).

Tested on: 361931-004-R-J1-PDC multicell spheroid viability
Experiment: Anticancer human tumor 361931-004-R-J1-PDC patient-derived colon adenocarcinoma cell line growth inhibition [PI3K]
Conditions: for IC50: curve of first compound; for viability, T/C: stronger effect = lower value
Description: Combinatorial screen of targeted agents with the PI3K inhibitors inavolisib, alpelisib, duvelisib, and copanlisib in multi-cell type tumor spheroids
A high-throughput screen of multi-cell type tumor spheroids was designed to identify active combinations of targeted small molecules and PI3K pathway inhibitors. Complex spheroids include a stromal component modeled by human endothelial cells (HUVEC) and fibroblasts modeled by human mesenchymal stem cells (MSCs). The concentration ranges selected for each drug and investigational agent were based upon clinically achievable concentrations if the clinical Cmax of the agent was known.
Compounds. The drugs and investigational agents: inavolisib (NSC800729), alpelisib (NSC765974), duvelisib (NSC772469), copanlisib (NSC816437), ipatasertib (NSC767898), afuresertib (NSC778305), talazoparib (NSC767125), sapanisertib (NSC764658), selumetinib (NSC741078), tovorafenib (DAY101, NSC766906), vemurafenib (NSC761431), ravoxertinib (NSC781343), sotorasib (NSC818433), MRTX1133 (NSC 836407), abemaciclib (NSC 768073), palbociclib (NSC758247), venetoclax (NSC 766270), SY5609 (NSC837396), enzalutamide (NSC755605), and darolutamide (NSC825331), were obtained from the National Cancer Institute (NCI) Developmental Therapeutics Program Chemical Repository. The FDA-approved anticancer drug set is available from the NCI Developmental Therapeutics Program. […] The stock solutions were prepared in dimethyl sulfoxide (DMSO, Sigma-Aldrich, St. Louis, MO, cat. D2650) at 800-fold the tested concentration and stored at -70 degrees C prior to their use. All drugs and investigational agents were tested over a range starting from a high concentration at or near the clinical Cmax and decreasing in half-log increments. If the clinical Cmax for an agent had not been determined, the highest concentration tested was 10 microM.
Cell Culture. All cells were maintained in an incubator at 37 degrees C and 5% CO2 with 95% humidity. The PDC lines were cultured according to standard operating procedures established by the NCI PDMR (https://pdmr.cancer.gov/sops/default.htm). All PDCs were thawed and cultured in Matrigel-coated flasks prepared with a working solution of 1X Ham's F-12 nutrient mix, without supplementation (Invitrogen, Waltham, MA, cat. 11765054), 100 U/mL penicillin-streptomycin (Invitrogen, cat. 15140122), and 2.5% Matrigel (Corning Inc., Corning, NY, cat. 354248) for the first three passages. The 354836-022-R-J1-PDC, 475296-252-R-J1-PDC, and 997726-040-R-J2-PDC lines were cultured in 6A media, which includes advanced DMEM/F-12 (Thermo Fisher Scientific, cat. 12634028), 10 mM HEPES (Thermo Fisher Scientific, cat. 15630080), 1X GlutaMAX supplement (Thermo Fisher Scientific, cat. 35050061), 0.1 mg/mL primocin (InvivoGen, San Diego, CA, cat. ant-pm-2), 10% defined fetal bovine serum, heat inactivated (HyClone Laboratories Inc., Logan, UT, cat. SH30070.03HI), 50% L-WRN conditioned media (ATCC, cat. CRL-3276), 1.25 mM N-Acetyl-L-cysteine (Sigma-Aldrich, cat. A9165), 10 mM nicotinamide (Sigma-Aldrich, cat. N0636), 1X B-27 supplement (Thermo Fisher Scientific, cat. 17504044), 1X N-2 supplement (Thermo Fisher Scientific, cat. 17502048), and 10 microM Y-27632 dihydrochloride (Tocris Bioscience, Bristol, United Kingdom, cat. 1254). The 624824-186-R-J2-PDC line was cultured in 6C/Colon 1B media, which includes all 6A media components plus 50 ng/mL human EGF recombinant protein (Thermo Fisher Scientific, cat. PHG0311). […]
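Note: spheroids exposed to agents for seven days before readout.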

Question: With `Cn1nccc1Nc1nccc(-c2ccn(C(CO)c3ccc(Cl)c(F)c3)c(=O)c2)n1` (configuration not stated) + Cc1nc(NC(=O)N2CCCC2C(N)=O)sc1-c1ccnc(C(C)(C)C(F)(F)F)c1 as the compound, how does the IC50 (second compound 0.0316 µM) read?
Answer: The IC50 was 9.92 µM.

Question: What about the IC50 (second compound 0.1 µM) of the same compound?
Answer: Its IC50 is 7.97 µM.

Question: What about the IC50 (second compound 0.316 µM) of the same compound?
Answer: The IC50 was 6.31 µM.

Question: What about the IC50 (second compound 1 µM) of the same compound?
Answer: The IC50 was 3.14 µM.

Question: What about the IC50 (second compound 3.16 µM) of the same compound?
Answer: The IC50 was 1.19 µM.

Question: What about the IC50 (second compound 10 µM) of the same compound?
Answer: The IC50 was 0.213 µM.

Question: And the viability, T/C (second compound 0.0316 µM, first compound 0.0316 µM)?
Answer: The viability, T/C was 106%.

Question: What about the viability, T/C (second compound 0.0316 µM, first compound 0.1 µM) of the same compound?
Answer: The viability, T/C was 101%.

Question: And the viability, T/C (second compound 0.0316 µM, first compound 0.316 µM)?
Answer: The viability, T/C was 90.4%.

Question: And the viability, T/C (second compound 0.0316 µM, first compound 1 µM)?
Answer: The viability, T/C was 94.5%.

Question: What about the viability, T/C (second compound 0.0316 µM, first compound 3.16 µM) of the same compound?
Answer: Its viability, T/C is 85.9%.

Question: And the viability, T/C (second compound 0.0316 µM, first compound 10 µM)?
Answer: Its viability, T/C is 49.2%.

Question: What about the viability, T/C (second compound 0.1 µM, first compound 0.0316 µM) of the same compound?
Answer: Its viability, T/C is 108%.

Question: And the viability, T/C (second compound 0.1 µM, first compound 0.1 µM)?
Answer: Its viability, T/C is 109%.

Question: And the viability, T/C (second compound 0.1 µM, first compound 0.316 µM)?
Answer: The viability, T/C was 101%.

Question: And the viability, T/C (second compound 0.1 µM, first compound 1 µM)?
Answer: Its viability, T/C is 89.4%.

Question: What about the viability, T/C (second compound 0.1 µM, first compound 3.16 µM) of the same compound?
Answer: Its viability, T/C is 78.8%.

Question: And the viability, T/C (second compound 0.1 µM, first compound 10 µM)?
Answer: The viability, T/C was 42.9%.

Question: What about the viability, T/C (second compound 0.316 µM, first compound 0.0316 µM) of the same compound?
Answer: Its viability, T/C is 112%.

Question: What about the viability, T/C (second compound 0.316 µM, first compound 0.1 µM) of the same compound?
Answer: The viability, T/C was 110%.

Question: And the viability, T/C (second compound 0.316 µM, first compound 0.316 µM)?
Answer: The viability, T/C was 95.5%.

Question: What about the viability, T/C (second compound 0.316 µM, first compound 1 µM) of the same compound?
Answer: Its viability, T/C is 86.8%.

Question: What about the viability, T/C (second compound 0.316 µM, first compound 3.16 µM) of the same compound?
Answer: The viability, T/C was 69.8%.

Question: What about the viability, T/C (second compound 0.316 µM, first compound 10 µM) of the same compound?
Answer: The viability, T/C was 37.3%.

Question: What about the viability, T/C (second compound 1 µM, first compound 0.0316 µM) of the same compound?
Answer: Its viability, T/C is 99.5%.

Question: What about the viability, T/C (second compound 1 µM, first compound 0.1 µM) of the same compound?
Answer: Its viability, T/C is 99.6%.

Question: What about the viability, T/C (second compound 1 µM, first compound 0.316 µM) of the same compound?
Answer: The viability, T/C was 94%.

Question: And the viability, T/C (second compound 1 µM, first compound 1 µM)?
Answer: The viability, T/C was 83.2%.

Question: What about the viability, T/C (second compound 1 µM, first compound 3.16 µM) of the same compound?
Answer: Its viability, T/C is 49.4%.

Question: What about the viability, T/C (second compound 1 µM, first compound 10 µM) of the same compound?
Answer: Its viability, T/C is 26.9%.

Question: And the viability, T/C (second compound 3.16 µM, first compound 0.0316 µM)?
Answer: Its viability, T/C is 91.4%.

Question: What about the viability, T/C (second compound 3.16 µM, first compound 0.1 µM) of the same compound?
Answer: Its viability, T/C is 87.2%.

Question: What about the viability, T/C (second compound 3.16 µM, first compound 0.316 µM) of the same compound?
Answer: Its viability, T/C is 75.9%.

Question: What about the viability, T/C (second compound 3.16 µM, first compound 1 µM) of the same compound?
Answer: Its viability, T/C is 56.6%.

Question: What about the viability, T/C (second compound 3.16 µM, first compound 3.16 µM) of the same compound?
Answer: Its viability, T/C is 24%.

Question: And the viability, T/C (second compound 3.16 µM, first compound 10 µM)?
Answer: Its viability, T/C is 10.4%.

Question: What about the viability, T/C (second compound 10 µM, first compound 0.0316 µM) of the same compound?
Answer: Its viability, T/C is 80%.

Question: And the viability, T/C (second compound 10 µM, first compound 0.1 µM)?
Answer: Its viability, T/C is 63.5%.

Question: What about the viability, T/C (second compound 10 µM, first compound 0.316 µM) of the same compound?
Answer: The viability, T/C was 43.6%.

Question: And the viability, T/C (second compound 10 µM, first compound 1 µM)?
Answer: The viability, T/C was 19%.

Question: And the viability, T/C (second compound 10 µM, first compound 3.16 µM)?
Answer: Its viability, T/C is 4.98%.

Question: And the viability, T/C (second compound 10 µM, first compound 10 µM)?
Answer: The viability, T/C was 2.3%.
